A short description of assay [1]: Inhibition of amyloid-beta (1 to 42) aggregation at 20 uM after 48 hrs by fluorescence analysis using thioflavin T.
A short description of assay [2]: Ratio of IC50 for equine serum Butyrylcholinesterase to IC50 for electric eel Acetylcholinesterase.
Another assay has as its target Acetylcholinesterase (Electrophorus electricus, UniProt O42275). As to the kind of experiment: Inhibition of electric eel Acetylcholinesterase.
For a further assay, the target named is Butyrylcholinesterase (Equus caballus, UniProt Q9N1N9). Put plainly: Inhibition of equine serum Butyrylcholinesterase.
Sequence of Butyrylcholinesterase (Q9N1N9 whole entry): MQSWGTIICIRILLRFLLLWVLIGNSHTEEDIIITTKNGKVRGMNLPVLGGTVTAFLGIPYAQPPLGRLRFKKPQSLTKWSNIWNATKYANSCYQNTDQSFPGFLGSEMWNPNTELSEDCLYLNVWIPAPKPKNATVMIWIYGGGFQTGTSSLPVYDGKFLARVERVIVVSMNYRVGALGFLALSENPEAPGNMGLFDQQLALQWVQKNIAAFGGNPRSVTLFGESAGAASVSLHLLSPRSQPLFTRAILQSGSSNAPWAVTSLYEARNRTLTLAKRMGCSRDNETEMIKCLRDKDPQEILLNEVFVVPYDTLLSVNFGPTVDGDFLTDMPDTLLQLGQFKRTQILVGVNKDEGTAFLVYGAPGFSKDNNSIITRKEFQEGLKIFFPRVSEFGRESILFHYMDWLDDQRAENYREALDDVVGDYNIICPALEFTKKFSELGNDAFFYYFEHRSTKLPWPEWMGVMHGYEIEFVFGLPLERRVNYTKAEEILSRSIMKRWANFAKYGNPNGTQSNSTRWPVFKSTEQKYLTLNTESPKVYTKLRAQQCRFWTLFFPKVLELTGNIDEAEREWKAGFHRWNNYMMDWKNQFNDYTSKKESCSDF

Nine molecules from ChEMBL document CHEMBL1765080, “Synthesis, biological evaluation and molecular modeling of novel triazole-containing berberine derivatives as acetylcholinesterase and β-amyloid aggregation inhibitors” (Bioorg Med Chem, 2011) can be followed below.

The structures appear in SMILES notation.

Sequence of Acetylcholinesterase (O42275 whole entry): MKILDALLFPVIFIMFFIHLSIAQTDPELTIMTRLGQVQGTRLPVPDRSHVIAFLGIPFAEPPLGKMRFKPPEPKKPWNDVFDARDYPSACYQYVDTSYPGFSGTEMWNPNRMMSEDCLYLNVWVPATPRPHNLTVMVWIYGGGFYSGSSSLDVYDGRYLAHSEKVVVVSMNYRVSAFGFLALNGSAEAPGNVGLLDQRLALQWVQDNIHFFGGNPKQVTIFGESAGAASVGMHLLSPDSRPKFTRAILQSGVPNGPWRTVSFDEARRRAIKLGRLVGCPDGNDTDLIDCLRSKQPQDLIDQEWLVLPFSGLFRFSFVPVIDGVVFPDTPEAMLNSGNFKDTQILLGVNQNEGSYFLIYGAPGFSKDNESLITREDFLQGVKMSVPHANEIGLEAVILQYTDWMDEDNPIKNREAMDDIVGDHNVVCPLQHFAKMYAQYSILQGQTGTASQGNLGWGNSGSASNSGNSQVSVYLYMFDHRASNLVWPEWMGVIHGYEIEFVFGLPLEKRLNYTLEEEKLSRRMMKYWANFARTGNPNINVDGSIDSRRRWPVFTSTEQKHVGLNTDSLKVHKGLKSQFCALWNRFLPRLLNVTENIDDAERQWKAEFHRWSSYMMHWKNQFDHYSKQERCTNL

By inhibition is commonly meant how much of the control response was suppressed. A higher inhibition goes with strong suppression. Regarding `COc1ccc2cc3[n+](cc2c1OC)CCc1cc2c(cc1-3)OCO2`, the inhibition in assay [1] amounted to 36.3%.

As a reminder, the IC50 is the concentration that inhibits the measured activity by half. As for `COc1ccc2cc3[n+](cc2c1OCCCCn1cc(-c2ccccc2)nn1)CCc1cc2c(cc1-3)OCO2`, the Ratio IC50 in assay [2] was 1.14. In addition, the IC50 at Acetylcholinesterase was 1320 nM; against Butyrylcholinesterase, 1500 nM. In assay [1], the inhibition was 60.6%.

As for `CCCCc1cn(CCCCOc2c(OC)ccc3cc4[n+](cc23)CCc2cc3c(cc2-4)OCO3)nn1`, the Ratio IC50 in assay [2] amounted to 10. Moreover, the IC50 at Acetylcholinesterase was 201 nM; against Butyrylcholinesterase it was 2020 nM. Further, the inhibition in assay [1] turned out to be 77.9%.

In the case of `COc1ccc2cc3[n+](cc2c1OCCCn1cc(-c2ccccc2)nn1)CCc1cc2c(cc1-3)OCO2`, in assay [2], the Ratio IC50 came to 7.13. In addition, the IC50 on Acetylcholinesterase worked out at 310 nM; on Butyrylcholinesterase, 2210 nM.

With `CCCCN(CCCC)c1cn(CCCOc2c(OC)ccc3cc4[n+](cc23)CCc2cc3c(cc2-4)OCO3)nn1`, the Ratio IC50 in assay [2] was 8.48. Further, the values for the IC50 against Acetylcholinesterase and on Butyrylcholinesterase were 243 nM and 2060 nM, respectively.

Take `CCCN(CCC)c1cn(CCCOc2c(OC)ccc3cc4[n+](cc23)CCc2cc3c(cc2-4)OCO3)nn1`: in assay [2], the Ratio IC50 worked out at 11.3. Moreover, the IC50 was determined as 140 nM at Acetylcholinesterase and 1580 nM on Butyrylcholinesterase.

With `CCCCc1cn(CCCOc2c(OC)ccc3cc4[n+](cc23)CCc2cc3c(cc2-4)OCO3)nn1`, in assay [2], the Ratio IC50 was found to be 24.6. Further, the values for the IC50 on Acetylcholinesterase and against Butyrylcholinesterase were 165 nM and 4060 nM, respectively.

With `CCCN(CCC)c1cn(CCCCOc2c(OC)ccc3cc4[n+](cc23)CCc2cc3c(cc2-4)OCO3)nn1`, the Ratio IC50 in assay [2] amounted to 17.7. Further, the IC50 was determined as 270 nM on Acetylcholinesterase and 4770 nM against Butyrylcholinesterase. In assay [1], this molecule returned an inhibition of 62.5%.

`CCCCN(CCCC)c1cn(CCCCOc2c(OC)ccc3cc4[n+](cc23)CCc2cc3c(cc2-4)OCO3)nn1`: in assay [2], the Ratio IC50 came out at 11.6. In addition, the results for the IC50 against Acetylcholinesterase and against Butyrylcholinesterase were 469 nM and 5460 nM, respectively. In assay [1], this molecule gave an inhibition of 71.7%.
